Assay results as given in PubChem BioAssay (NCI).
Several values for one entry are separate records, joined by “and”; a condition that tells them apart may be missing. Identical values can stand only once.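 Tested at 5 concentrations; 48 h exposure; 96-well plates; endpoints linearly interpolated, else capped at highest concentration. GI50 is the concentration that inhibits growth by half. At the TGI there is no net growth.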

Assays:
Experiment in all cases: NCI anticancer screen, dose series, 48 h
ACHN renal = test system: ACHN renal
M14 melanoma = test system: M14 melanoma
SR leukemia = test system: SR leukemia
MDA-MB-231 breast = test system: MDA-MB-231 breast
T-47D breast = test system: T-47D breast
HL-60(TB) leukemia = test system: HL-60(TB) leukemia
NCI-H460 lung = test system: NCI-H460 lung
EKVX NSCLC = test system: EKVX NSCLC
MDA-N = test system: MDA-N

## CC1=NN(C(=O)CC(=O)Nc2cccc(C)c2)C(=O)C1N=Nc1ccc(S(=O)(=O)CCOS(=O)(=O)O)cc1 (centres undefined)
ACHN renal
  TGI: 17.1 µM
M14 melanoma
  TGI: 17.3 µM
SR leukemia
  TGI: > 100 µM
MDA-MB-231 breast
  TGI: 14.8 µM
T-47D breast
  TGI: > 49.5 µM
HL-60(TB) leukemia
  TGI: > 100 µM
NCI-H460 lung
  TGI: 11.8 µM
EKVX NSCLC
  TGI: > 64.6 µM
MDA-N
  TGI: 0.902 µM

## Cn1/c(=N\N=C2\C=C3CCCCC3(C)CC2)sc2ccccc21 (centres undefined)
ACHN renal
  TGI: > 100 µM
M14 melanoma
  TGI: > 100 µM
SR leukemia
  TGI: > 100 µM
MDA-MB-231 breast
  TGI: > 100 µM
T-47D breast
  TGI: > 100 µM
HL-60(TB) leukemia
  TGI: > 100 µM
NCI-H460 lung
  TGI: > 100 µM
EKVX NSCLC
  TGI: > 100 µM
MDA-N
  TGI: > 100 µM

## Nc1c(C(=O)c2ccc(Cl)c(Cl)c2)[nH]c(NCc2ccccc2)c1C(=S)Nc1ccccc1
ACHN renal
  TGI: 28.1 µM
M14 melanoma
  TGI: 12.6 µM
SR leukemia
  TGI: > 100 µM
MDA-MB-231 breast
  TGI: 17.6 µM
T-47D breast
  TGI: 81.2 µM
HL-60(TB) leukemia
  TGI: 38.4 µM
NCI-H460 lung
  TGI: 20.7 µM
EKVX NSCLC
  TGI: 29.6 µM
MDA-N
  TGI: 14.5 µM

## COC1CC(C)(NC(=O)C(F)(F)F)C2OC(c3ccccc3)OCC2O1 (centres undefined)
ACHN renal
  TGI: > 100 µM
M14 melanoma
  TGI: > 100 µM
SR leukemia
  TGI: > 100 µM
MDA-MB-231 breast
  TGI: > 100 µM
T-47D breast
  TGI: > 100 µM
HL-60(TB) leukemia
  TGI: > 100 µM
NCI-H460 lung
  TGI: > 100 µM
EKVX NSCLC
  TGI: > 100 µM
MDA-N
  TGI: > 100 µM

## Cn1c(=O)c2c(nc3[nH]c(=O)c(Br)cn32)n(C)c1=O
ACHN renal
  TGI: > 100 µM
M14 melanoma
  TGI: > 100 µM
SR leukemia
  TGI: > 100 µM
MDA-MB-231 breast
  TGI: > 100 µM
T-47D breast
  TGI: > 100 µM
HL-60(TB) leukemia
  TGI: > 100 µM
NCI-H460 lung
  TGI: > 100 µM
EKVX NSCLC
  TGI: > 100 µM
MDA-N
  TGI: > 100 µM

## Cc1c(C)c2c(c(N)c1C#N)C(=O)N(N)C2=O
ACHN renal
  TGI: > 100 µM
M14 melanoma
  TGI: > 100 µM
SR leukemia
  TGI: > 100 µM
MDA-MB-231 breast
  TGI: > 100 µM
T-47D breast
  TGI: > 100 µM
HL-60(TB) leukemia
  TGI: > 100 µM
NCI-H460 lung
  TGI: > 100 µM
EKVX NSCLC
  TGI: > 100 µM
MDA-N
  TGI: > 100 µM

## N#Cc1nc(CCc2nc(C#N)c(N)o2)oc1N
ACHN renal
  TGI: > 10 µM
M14 melanoma
  TGI: > 10 µM
SR leukemia
  TGI: > 10 µM
MDA-MB-231 breast
  TGI: > 10 µM
T-47D breast
  TGI: > 10 µM
HL-60(TB) leukemia
  TGI: > 10 µM
NCI-H460 lung
  TGI: > 10 µM
EKVX NSCLC
  TGI: > 10 µM
MDA-N
  TGI: > 10 µM

## COC(=O)C1OC(O[C@H]2CC[C@]3(C)[C@H]4CC=C5[C@@H]6CC(C)(C)CC[C@]6(C(=O)OC6OCC(O)C(O)C6OC6OC(C)C(OC7OCC(O)C(O)C7O)C(O)C6O)[C@H](O)C[C@@]5(C)[C@]4(C)CC[C@H]3C2(C)C)C(O)C(O)C1O (some centres undefined)
ACHN renal
  TGI: 14.6 µM and 14.9 µM
M14 melanoma
  TGI: 7.65 µM and 14.8 µM
SR leukemia
  TGI: > 100 µM and 13.4 µM
MDA-MB-231 breast
  TGI: 7.48 µM and 4.39 µM
T-47D breast
  TGI: > 100 µM and 27.2 µM
HL-60(TB) leukemia
  TGI: 5.28 µM and 6.62 µM
NCI-H460 lung
  GI50: 34 µM and 16.9 µM
  TGI: > 100 µM and 33.4 µM
EKVX NSCLC
  TGI: 8.04 µM and 11.1 µM
MDA-N
  TGI: 3.77 µM and 12.1 µM

## COC(=N)C1(C#N)NC(c2ccsc2)C(C#N)(C#N)NC1c1ccsc1 (centres undefined)
ACHN renal
  TGI: > 100 µM
M14 melanoma
  TGI: > 100 µM
SR leukemia
  TGI: > 100 µM
MDA-MB-231 breast
  TGI: > 100 µM
T-47D breast
  TGI: > 100 µM
HL-60(TB) leukemia
  TGI: > 100 µM
NCI-H460 lung
  TGI: > 100 µM
EKVX NSCLC
  TGI: > 100 µM
MDA-N
  TGI: > 100 µM

## CN1CCN(C(=O)c2cn(Cc3cncn3Cc3ccc4c(c3)OCO4)cc2-c2cccc3ccccc23)CC1
ACHN renal
  TGI: > 100 µM
M14 melanoma
  TGI: 46 µM
SR leukemia
  TGI: 10.3 µM
MDA-MB-231 breast
  TGI: 33.3 µM
T-47D breast
  TGI: > 100 µM
HL-60(TB) leukemia
  TGI: 23.2 µM
NCI-H460 lung
  TGI: > 100 µM
EKVX NSCLC
  TGI: > 100 µM
MDA-N
  TGI: > 100 µM

## N#Cc1c(NC(=S)Nc2ccc(Cl)cc2)sc2c1CCN(N1CCc3c(sc(NC(=S)Nc4ccc(Cl)cc4)c3C#N)C1)C2
ACHN renal
  TGI: > 100 µM
M14 melanoma
  TGI: 23.2 µM
SR leukemia
  TGI: > 100 µM
MDA-MB-231 breast
  TGI: 27.2 µM
T-47D breast
  TGI: > 100 µM
HL-60(TB) leukemia
  TGI: > 100 µM
NCI-H460 lung
  TGI: > 100 µM
EKVX NSCLC
  TGI: > 100 µM
MDA-N
  TGI: > 100 µM

## C[n+]1cccc2ccc3cccnc3c21
ACHN renal
  TGI: > 100 µM
M14 melanoma
  TGI: > 100 µM
SR leukemia
  TGI: > 100 µM
MDA-MB-231 breast
  TGI: > 100 µM
T-47D breast
  TGI: 96.5 µM
HL-60(TB) leukemia
  TGI: > 100 µM
NCI-H460 lung
  TGI: > 100 µM
EKVX NSCLC
  TGI: > 100 µM
MDA-N
  TGI: > 100 µM

## CCOC(=O)c1c(N)sc2c1C(C(=O)OCC)CCCC2 (centres undefined)
ACHN renal
  TGI: > 100 µM
M14 melanoma
  TGI: > 100 µM
SR leukemia
  TGI: > 100 µM
MDA-MB-231 breast
  TGI: > 100 µM
T-47D breast
  TGI: 78.3 µM
HL-60(TB) leukemia
  TGI: > 100 µM
NCI-H460 lung
  TGI: > 100 µM
EKVX NSCLC
  TGI: > 100 µM
MDA-N
  TGI: > 100 µM

## CC(C)(C)C1CCC2c3c([nH]c4ccccc34)C3C(=O)N(c4ccc([N+](=O)[O-])cc4)C(=O)C3C2C1 (centres undefined)
ACHN renal
  TGI: > 100 µM
M14 melanoma
  TGI: 86.2 µM
SR leukemia
  TGI: 19.7 µM
MDA-MB-231 breast
  TGI: 48.4 µM
T-47D breast
  TGI: > 100 µM
HL-60(TB) leukemia
  TGI: 34.7 µM
NCI-H460 lung
  TGI: > 100 µM
EKVX NSCLC
  TGI: > 100 µM
MDA-N
  TGI: > 100 µM

## O=C(Nc1ccccc1)N1CCN(C(=O)Nc2ccccc2)C1=S
ACHN renal
  TGI: > 100 µM
M14 melanoma
  TGI: > 100 µM
SR leukemia
  TGI: > 100 µM
MDA-MB-231 breast
  TGI: > 100 µM
T-47D breast
  TGI: > 100 µM
HL-60(TB) leukemia
  TGI: > 100 µM
NCI-H460 lung
  TGI: > 100 µM
EKVX NSCLC
  TGI: > 100 µM
MDA-N
  TGI: > 100 µM

## O=P1(N(CCCl)CCCl)Oc2ccc(Cl)cc2C(C(Cl)(Cl)Cl)c2cc(Cl)ccc2O1 (centres undefined)
ACHN renal
  TGI: > 100 µM
M14 melanoma
  TGI: 98.4 µM
SR leukemia
  TGI: 30.6 µM
MDA-MB-231 breast
  TGI: 44.4 µM
T-47D breast
  TGI: > 100 µM
HL-60(TB) leukemia
  TGI: > 100 µM
NCI-H460 lung
  TGI: 29.8 µM
EKVX NSCLC
  TGI: > 100 µM
MDA-N
  TGI: 87.7 µM

## O=C(O)C(Cc1ccccc1)NCc1c(O)ccc2c(-c3ccccc3)cc(=O)oc12 (centres undefined)
ACHN renal
  TGI: > 100 µM
M14 melanoma
  TGI: > 100 µM
SR leukemia
  TGI: > 100 µM
MDA-MB-231 breast
  TGI: > 100 µM
T-47D breast
  TGI: > 100 µM
HL-60(TB) leukemia
  TGI: > 100 µM
NCI-H460 lung
  TGI: > 100 µM
EKVX NSCLC
  TGI: > 100 µM
MDA-N
  TGI: > 100 µM
